Test results taken from patent publication US11945790B2 (ImmunoMolecular Therapeutics, Inc., priority 2020, dated 2024).

Molecular target: HLA-DQ2 (Homo sapiens, UniProt P01909+P01920)
Test: Inhibition of IL-2 secretion by TCR transductants stimulated by α-gliadin peptides presented by HLA-DQ2 expressing K562 cells (ELISA)
Assay type: cell-based
Conditions: inhibition of IL-2 secretion at 200 uM; tested as trans racemate unless otherwise noted; lines naming several Examples = stereoisomer mixture of those Examples
Experimental: Three commercially available analogues of the DQ2 binding molecules of the invention were tested for their ability to inhibit stimulation of T cell receptor (TCR) transductants in the presence of HLA-DQ2 expressing cells presenting known α-gliadin epitopes.
Using a previously published in vitro assay (Ostrov D, et al. Methyldopa blocks MHC class II binding to disease specific antigens in autoimmune diabetes. J Clin Invest. 2018:128 (5)) the ability of these DQ2 binding analogues to inhibit interleukin-2 (IL-2) secretion by TCR transductants stimulated by α-gliadin peptides presented by HLA-DQ2 was determined. Individual TCR transductants (recognizing a I-gliadin or a II-gliadin) were cultured with a gliadin peptide plus the small molecule analogues in the presence of HLA-DQ2 expressing K562 cells serving as antigen presenting cells. TCR transductants cultured with no gliadin peptide served as the negative control, and incubation with an anti-CD3 antibody (eBioscience; clone 2C11) served as a positive control for the TCR transductant. Secreted IL-2 in the culture supernatant was measured using a highly sensitive enzyme-linked immunosorbent assay (ELISA). […] Assays for effects on cell viability and for specificity, assayed in the absence of gliadin peptide or in the presence of a stimulating anti-CD3 antibody, were performed. Unless otherwise noted, the stereochemistry shown below represents the relative configuration. Further, unless otherwise noted, compounds were tested as the trans racemate.

Chain of HLA-DQ2 (P01920 33-261 limits assumed, other chains not shown): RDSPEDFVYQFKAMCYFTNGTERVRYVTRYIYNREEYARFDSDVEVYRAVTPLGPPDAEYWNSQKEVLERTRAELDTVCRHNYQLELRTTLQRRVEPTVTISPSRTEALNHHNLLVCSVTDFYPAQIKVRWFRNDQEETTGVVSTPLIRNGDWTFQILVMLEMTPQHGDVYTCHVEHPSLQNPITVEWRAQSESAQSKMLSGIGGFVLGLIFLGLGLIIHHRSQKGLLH

% Inh at 200 uM	SMILES
C (C=25-49%)	O=C(CS(=O)(=O)C1CCCC1)N1CCN(C(=O)[C@@H]2CC2c2ccccc2)CC1 (some centres unmarked) [Example 102]
C (C=25-49%)	NC(=O)c1ccc(SCC(=O)N2CCN(C(=O)[C@@H]3C[C@H]3c3ccccc3)CC2)cc1 (relative stereo) [Example 85, 4-((2-Oxo-2-(4-(trans-2-phenylcyclopropanecarbonyl)piperazin-1-yl)ethyl)thio)benzamide]
B (B=50-74%)	O=C(COc1ccccc1)N1CCN(C(=O)[C@@H]2C[C@H]2c2ccccc2)CC1 (relative stereo) [Example 48, 2-Phenoxy-1-(4-(trans-2-phenylcyclopropanecarbonyl)piperazin-1-yl) ethanone]
C (C=25-49%)	CSCC(=O)N1CCN(C(=O)[C@@H]2C[C@H]2c2ccccc2)CC1 (relative stereo) [Example 43, [2-(Methylthio)-1-(4-(trans-2-phenylcyclopropane-1-carbonyl)piperazin-1-yl)ethan-1-one]]
A (A=≥75%)	O=C(CSC1CCCCCC1)N1CCN(C(=O)[C@@H]2C[C@H]2c2ccccc2)CC1 (relative stereo) [Example 69, 2-(Cycloheptylthio)-1-(4-(trans-2-phenylcyclopropane-1-carbonyl)piperazin-1-yl) ethan-1-one]
B (B=50-74%)	O=C(c1ccco1)N1CCN(C(=O)C2CC2c2ccc3c(c2)OCO3)CC1 (centres unmarked) [Example 7]
C (C=25-49%)	O=C(CSc1ccc(F)cc1Cl)N1CCN(C(=O)[C@@H]2C[C@H]2c2ccccc2)CC1 (relative stereo) [Example 59, 2-((2-Chloro-4-fluorophenyl)thio)-1-(4-(trans-2-phenylcyclo-propanecarbonyl)piperazin-1-yl)ethanone]
C (C=25-49%)	Cc1ccccc1SCC(=O)N1CCN(C(=O)[C@@H]2C[C@H]2c2ccccc2)CC1 (relative stereo) [Example 50, 1-(4-(Trans-2-phenylcyclopropanecarbonyl)piperazin-1-yl)-2-(o-tolylthio)ethanone]
D (D=0-24%)	O=C(O)CCCSCC(=O)N1CCN(C(=O)[C@@H]2C[C@H]2c2ccccc2)CC1 [Example 114]
A (A=≥75%)	Cc1cccc(SCC(=O)N2CCN(C(=O)[C@@H]3C[C@H]3c3ccccc3)CC2)c1 [Example 51]
B (B=50-74%)	COc1cccc([C@H]2C[C@@H]2C(=O)N2CCN(C(=O)CSC3CCCC3)CC2)c1 [Example 27]
